Assay results as given in article PMC11820219 (Nutrients, 2025).

Legend:
α-glucosidase [1] = target: T1, α-glucosidase (Saccharomyces cerevisiae, UniProt P53341); assay: fluorescence quenching of α-glucosidase (Stern–Volmer); assay type: binding
Text: The mixture was scanned using fluorescence spectroscopy (SpectraMax i3x, Molecular Devices, LLC., San Jose, CA, USA). The excitation wavelength was set at 280 nm, and the emission wavelength at 300–500 nm, with excitation and emission slit widths of 5 nm. Then, the following Stern–Volmer dynamic collision quenching equations were applied to calculate the fluorescence quenching parameters, including the quenching constants (KSV), quenching rate constant (Kq), binding constant (Ka), and binding site number (n). The equations are described below:(2) F0/F=1+KSV[Q]=1+Kqτ0[Q] (3) lgF0−F/F=lgKa+nlg[Q]

α-glucosidase [2] = target: T1, α-glucosidase; assay: FT-IR secondary structure of α-glucosidase (amide I curve fitting); conditions: astragalin 100 µg/mL
Text: The secondary conformation of α-glucosidase (1 U/mL) with or without sample treatment were detected with a Fourier transform infrared spectrometer (FT-IR) (VERTEX 7.0, BRUKER Co., Ltd., Bremen, Germany), by fitting the infrared amide type I curve (1600–1700 cm^−1).

HepG2 cells = assay: HepG2 cell survival rate (CCK-8); assay type: cell-based, human; conditions: 0–200 µg/mL, 24 h
Description: (§1) HepG2 cells at 10 to 40 generations were configured at a concentration of 4 × 10^5/mL. The cells suspension 100 µL was inoculated into a culture plate with DMEM (10 mL) containing glucose 4.5 g/L, 10% FBS, penicillin (1000 U/mL), and streptomycin ([…]), and cultivated in a 37 °C, 5% CO2 incubator.
Each sample was added to a 96-well plate with HepG2 cells and incubated in a 37 °C, 5% CO2 incubator for 24 h. After washing twice with PBS, the CCK-8 solution 100 µL was added, and incubated for another 4 h. The absorbance at 450 nm was measured using a Microplate reader (Bio TekGen5, BioTech Instruments, Co., Ltd., Winooski, VT, USA). The cells’ survival rates were calculated based on the formula as shown below:Cell survival rate (%) = A samples/A black control × 100%(5)

high-glucose HepG2 cells = assay: high-glucose (insulin-resistant) HepG2 model: glucose, TC, TG; assay type: cell-based, human; conditions: for hypoglycemic effect (glucose level) compared between concentrations: 80 µg/mL, superior to acarbose positive control 5 µg/mL
Description: as §1
When the cells were increased to about 80%, insulin at a concentration of 10^−5 mmol/L was treated for 24 h to induce the formation of insulin-resistant cells. […] After the treatment of 24 h with different samples, the glucose, TC, and TG content in the HepG2 cell supernatant was measured with glucose, TC, and TG assay kits.

[3] = system: AMPK signaling pathway (p-AMPK, ACC, GLUT4); assay: Western blotting of AMPK pathway proteins in high-glucose HepG2 cells; assay type: cell-based, human
Description: Protein samples of 20 µg were separated by sodium dodecyl sulfate polyacrylamide gel electrophoresis in the Bio-Rad electrophoresis apparatus (Liuyi Biotechnology Co., Ltd., Beijing, China), and then transferred to polyvinylidene fluoride membranes. The electrophoretic proteins were sealed with 5% skimmed milk at room temperature for 1 h, and the membranes were incubated overnight with primary antibodies, including AMPK, phospho-AMPK (p-AMPK), acetyl CoA carboxylase (ACC, EC 6.4.1.2), and glucose transporter 4 (GLUT4) at 4 °C. After washing the membrane with phosphate-buffered saline tween-20, the membranes were incubated with secondary antibodies at room temperature for 1 h.

[4] = system: streptozocin-induced diabetic mice; parameters: method as in PMID 27687881; conditions: cited from earlier work
Müller cells = conditions: high glucose; cited from earlier work
α-glucosidase [5] = target: T1, α-glucosidase; conditions: reported compound; cited from earlier work
[6] = different concentrations, high-glucose HepG2 cells

T1 sequence (P53341 whole entry): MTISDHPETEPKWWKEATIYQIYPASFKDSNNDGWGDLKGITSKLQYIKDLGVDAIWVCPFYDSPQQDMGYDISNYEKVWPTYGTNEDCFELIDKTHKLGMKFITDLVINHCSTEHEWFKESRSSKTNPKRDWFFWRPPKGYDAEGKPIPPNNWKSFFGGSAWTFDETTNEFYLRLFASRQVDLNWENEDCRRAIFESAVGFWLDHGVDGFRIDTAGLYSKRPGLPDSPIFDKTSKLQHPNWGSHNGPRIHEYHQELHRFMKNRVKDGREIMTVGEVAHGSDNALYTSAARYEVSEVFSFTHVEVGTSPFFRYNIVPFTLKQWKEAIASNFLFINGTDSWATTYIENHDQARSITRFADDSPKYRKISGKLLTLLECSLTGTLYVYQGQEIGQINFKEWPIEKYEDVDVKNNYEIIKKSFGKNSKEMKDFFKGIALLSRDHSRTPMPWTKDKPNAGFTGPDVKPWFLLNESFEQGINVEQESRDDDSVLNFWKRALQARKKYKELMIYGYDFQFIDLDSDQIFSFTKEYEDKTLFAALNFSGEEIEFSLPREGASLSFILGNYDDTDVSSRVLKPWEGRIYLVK

SMILES: O=c1c(O[C@@H]2O[C@H](CO)[C@@H](O)[C@H](O)[C@H]2O)c(-c2ccc(O)cc2)oc2cc(O)cc(O)c12 [astragalin, kaempferol-3-O-β-D-glucopyranoside]
- KSV (quenching constant) (α-glucosidase [1]; 298 K): 9.093 ×10^3 Lmol^−1
- n (binding site number) (α-glucosidase [1]; 298 K): 1.238
- KSV (quenching constant) (α-glucosidase [1]; 304 K): 7.903 ×10^3 Lmol^−1
- n (binding site number) (α-glucosidase [1]; 304 K): 1.1905
- KSV (quenching constant) (α-glucosidase [1]; 310 K): 7.061 ×10^3 Lmol^−1
- n (binding site number) (α-glucosidase [1]; 310 K): 0.8446
- maximum fluorescence emission wavelength of α-glucosidase with astragalin (α-glucosidase [1]; free enzyme around 346 nm, excitation 280 nm, 298 K): 349 nm
- Kq values (α-glucosidase [1]; under three temperature conditions, compared with maximum diffusion collision quenching constant): higher than 2.0 × 10^10 Lmol^−1 s^−1
- β-turn content of α-glucosidase with astragalin (α-glucosidase [2]; without astragalin 11.72%): 19.30%
- β-sheet content of α-glucosidase with astragalin (α-glucosidase [2]; without astragalin 11.94%): 4.71%
- random coil content of α-glucosidase with astragalin (α-glucosidase [2]; without astragalin 21.08%): 38.79%
- CCK-8 cell survival (HepG2 cells): within the safe range
- hypoglycemic effect (glucose level) compared between concentrations (high-glucose HepG2 cells): the activity was the strongest
- hypoglycemic effect (glucose level) compared between concentrations (high-glucose HepG2 cells; listed as Astragalin): best hypoglycemic effect
- glucose level in the cells (high-glucose HepG2 cells; 20, 80, and 200 µg/mL, 24 h, insulin-induced high-glucose HepG2): reduced the glucose level in the cells
- TC level (high-glucose HepG2 cells; [6]): reduced the levels of TC
- TG level (high-glucose HepG2 cells; [6]): reduced the levels of TC and TG
- GLUT4 protein expression level ([3]; 20 µg/mL): significantly increased
- ACC protein expression level ([3]; 80 µg/mL): significantly down-regulated
- p-AMPK protein expression level ([3]; 80 and 200 µg/mL): up-regulated
- hypoglycemic effects in diabetic mice [4]: improved the glucose tolerance and reduced the level of glucose
- vascular endothelial growth factor over-expression (Müller cells): decreased the over-expression

SMILES: COc1cc(OC)c2c(ccc3cc(OC)c(O)cc32)c1 [batatasin I]
- IC50 (α-glucosidase [5]): 2550 µM
